In series [1] the target is S-adenosyl-L-homocysteine hydrolase (SAHH) (Homo sapiens, UniProt P23526). The conditions noted are these: background statement; cited from earlier work.
Series [2] concerns psoriasis induced by imiquimod in mice. The experiment in a line: Imiquimod-induced psoriasis in mice, ointment treatment, PASI scoring and skin lesion photographs. The note with it: 62.5 mg ointment (0.2 g per 10 g) on dorsal skin every day, observed over 15 days, FIG. 1. In kind it is in vivo, female balb/c mice. The text has this:
Testing materials: the ointment base from Example 1; the methyl 4-[9-(6-aminopuryl)]-2(s)-hydroxybutyrate ointment from Example 2, and per 10 g of the ointment contains 0.2 g of methyl 4-[9-(6-aminopuryl)]-2(s)-hydroxybutyrate.
Modeling drug: Imiquimod Cream produced by SICHUAN MED-SHINE PHARMACEUTICAL CO., LTD.; SDA (State Drugs Administration) License No.: GUOYAOZHUNZI H20030128; Lot No.: 15060139.
Positive control drug: Calcipotriol Ointment produced by CHONGQING HUAPONT PHARM CO., LTD., SDA (State Drugs Administration) License No.: GUOYAOZHUNZI H20113541; Lot No.: 2015002.
Experimental animals: female balb/c mice with body weight of 18-22 g, provided by SHANGHAI SLAC LABORATORY ANIMAL CO., LTD. […]
(§1) Treatment: dorsal skin of the mice of the normal control group and model control group was applied with ointment base of 62.5 mg from Example 1 every day, and the dorsal skin of the mice of calcipotriol control group was applied with Calcipotriol Ointment of 62.5 mg every day, and the dorsal skin of the mice of ointment treatment group was applied with methyl 4-[9-(6-aminopuryl)]-2(s)-hydroxybutyrate ointment of 62.5 mg. […] Based on PASI score system, the erythema (FIG. 1A), scales (FIG. 1B) and skin thickening (FIG. 1C) of the dorsal skin were scored (0-4). […]

The next series relates to cells. The note with it: background statement; cited from earlier work.
For series [3], the system named is T lymphocyte activation in spleen. As to the kind of experiment: Flow cytometry of naive and active T cells in spleen lymphocytes of imiquimod-induced psoriasis mice. In kind it is in vivo, female balb/c mice. The note with it: after 7 days of ointment treatment, FIG. 2C-2E.
Text: (§2) FIG. 2 illustrates the inhibition of spleen swelling and T lymphocyte activation in spleen induced by imiquimod with methyl 4-[9-(6-aminopuryl)]-2(s)-hydroxybutyrate in mice. Mice models are weighed (FIG. 2A) and euthanized on Day 7 of imiquimod-induced psoriasis modeling, and spleens of the mice were weighed to calculate spleen index (FIG. 2B); naive T cells (CD3^+CD4^+CD44^−CD62L^+) ratio (FIG. 2C, 2D), and active T cells (CD3^+CD4^+CD44^+CD62L^−) ratio (FIG. 2C, 2E) are detected. *P<0.05, ***P<0.001, n≥5. The groups in FIG. 2 are the normal control group, model control group and ointment treatment group. FIG. 2C is for CD3^+CD4^+ T cells, and FIGS. 2D and 2E show the ratio of CD3^+CD4^+ T cells in all spleen lymphocytes. […]
as §1

For the next series, the system named is IL-17. As to the kind of experiment: IL-17 ELISA of damaged skin extract of imiquimod-induced psoriasis mice. The note with it: after 7 days of ointment treatment, FIG. 3. Type of series: in vivo, female balb/c mice.
Text: FIG. 3 illustrates the inhibition of IL-17 level in psoriatic lesions induced by imiquimod with methyl 4-[9-(6-aminopuryl)]-2(s)-hydroxybutyrate in mice. Skin of the lesions is taken on Day 7 of imiquimod-induced psoriasis modeling, and its IL-17 content is detected by ELISA. *P<0.05, n≥5. The groups in FIG. 3 are the normal control group, model control group and ointment treatment group.
Construction of animal models with psoriasis: normal control group, model control group, calcipotriol ointment control group, ointment treatment group, n=10/group. […]
as §1
The mice were weighed when the psoriasis was more serious after 7 days of treatment; the mice were sacrificed, and the spleens of each group were removed and weighed. […] Inflammatory factor (IL-17) of the extract was detected by ELISA (FIG. 3).

The subject of a further series is spleen swelling. As to the kind of experiment: Spleen weight / spleen index in imiquimod-induced psoriasis mice. Type of series: in vivo, female balb/c mice. The conditions noted are these: after 7 days of ointment treatment, FIG. 2A, 2B.
Text: as §2, §1

Series [4] concerns experimental autoimmune encephalomyelitis (EAE). The note with it: animal models, background statement; cited from earlier work.
The subject of series [5] is systemic lupus erythematosus (SLE). The note with it: animal models, background statement; cited from earlier work.

Each structure is given as a SMILES string.

Sequence of S-adenosyl-L-homocysteine hydrolase (SAHH) (P23526 whole entry, species assumed): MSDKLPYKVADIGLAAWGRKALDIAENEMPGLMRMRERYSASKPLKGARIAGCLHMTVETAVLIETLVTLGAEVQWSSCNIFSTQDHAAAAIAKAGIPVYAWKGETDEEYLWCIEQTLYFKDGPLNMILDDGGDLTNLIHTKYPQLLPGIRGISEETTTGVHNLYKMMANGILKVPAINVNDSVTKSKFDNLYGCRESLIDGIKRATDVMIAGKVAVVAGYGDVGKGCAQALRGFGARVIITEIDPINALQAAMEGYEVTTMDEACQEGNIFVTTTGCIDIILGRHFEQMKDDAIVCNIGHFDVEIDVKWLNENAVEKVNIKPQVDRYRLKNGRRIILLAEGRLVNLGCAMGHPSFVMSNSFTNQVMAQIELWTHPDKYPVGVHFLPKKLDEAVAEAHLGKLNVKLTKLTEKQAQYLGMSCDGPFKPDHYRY

Regarding `COC(=O)C(O)CCn1cnc2c(N)ncnc21` (centres unmarked) [methyl 4-[9-(6-aminopuryl)]-2(s)-hydroxybutyrate], in series [1], the “type of SAHH inhibition” value is listed as “type III inhibitor of SAHH”. Also, the “PASI scores of erythema, scales, skin thickening and total score of skin lesion severity” value in series [2] is “relieved psoriasis induced by imiquimod in mice effectively”. In addition, in the series on cells, the cytotoxicity entry is listed as “low cytotoxicity”. The “T lymphocyte activation (ratio of naive and active T cells in spleen lymphocytes)” value in series [3] was “inhibited T lymphocyte activation in mice with psoriasis induced by imiquimod”. For the same compound, the “level of IL-17 in the damaged skin” value in the series on IL-17 is given as “inhibited the level of IL-17 in the damaged skin”. For the same compound, the “spleen swelling (spleen index)” value in the series on spleen swelling was “improved spleen swelling in mice with psoriasis induced by imiquimod significantly”. In series [4], the “therapeutic effect on EAE” value was “good therapeutic effect”. Also, in series [5], the “therapeutic effect on SLE” value is “good therapeutic effect”.

(Values after patent publication US11045475B2, “Application of methyl 4-[9-(6-aminopuryl)]-2(s)-hydroxybutyrate in preparation of medicament for treating psoriasis and vitiligo” (SHANGHAI INSTITUTE OF MATERIA MEDICA, CHINESE ACADEMY OF …, priority 2016, dated 2021).)
